Measurements: patent US9993494B2, “Compositions and methods for treating fibrotic disease” (eFFECTOR Therapeutics, Inc., priority 2014, dated 2018)

System: normal human lung fibroblasts
Test: Ribosomal profiling: translational efficiency in TGFβ-treated fibroblasts
Assay type: cell-based
Details: TGFβ-treated fibroblasts
Summary of the method: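 Genome-wide RPF and total RNA libraries (ARTseq, RNA-Seq) were made from lysates of cycloheximide-treated, PBS-washed cells. After trimming and human-genome mapping, per-gene coding-region counts were compared between RPF and RNA for translational efficiency. Genes scoring low in either fraction were dropped.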

CC(C=CC(=O)NO)=CC(C)C(=O)c1ccc(N(C)C)cc1 (stereo not drawn) [TSA, 7-[4-(dimethylamino)phenyl]-N-hydroxy-4,6-dimethyl-7-oxohepta-2,4-dienamide]
+ (+ = 0.9 to 1.5): renormalizing the translational profile of KITLG (ENSG00000049130) | renormalizing the translational profile of EIF4B (ENSG00000063046) | renormalizing the translational profile of ASPM (ENSG00000066279) | renormalizing the translational profile of EPB41L1 (ENSG00000088367) | renormalizing the translational profile of IRAK3 (ENSG00000090376) | renormalizing the translational profile of FMO2 (ENSG00000094963) | renormalizing the translational profile of GLTSCR2 (ENSG00000105373) | renormalizing the translational profile of GLCCI1 (ENSG00000106415) | renormalizing the translational profile of GDF10 (ENSG00000107623) | renormalizing the translational profile of C12orf57 (ENSG00000111678) | renormalizing the translational profile of PPARG (ENSG00000132170) | renormalizing the translational profile of NOV (ENSG00000136999) | renormalizing the translational profile of GAS2L3 (ENSG00000139354) | renormalizing the translational profile of PLEKHA6 (ENSG00000143850) | renormalizing the translational profile of RPL10 (ENSG00000147403) | renormalizing the translational profile of CCDC102B (ENSG00000150636) | renormalizing the translational profile of FRMD4A (ENSG00000151474) | renormalizing the translational profile of EEF1A1 (ENSG00000156508)
+++ (+++ = >2.0): renormalizing the translational profile of CIT (ENSG00000122966) | renormalizing the translational profile of OBSCN (ENSG00000154358)
− (− = <0.9): renormalizing the translational profile of DNASE1L1 (ENSG00000013563) | renormalizing the translational profile of ADAMTS6 (ENSG00000049192) | renormalizing the translational profile of LETMD1 (ENSG00000050426) | renormalizing the translational profile of PLEKHA5 (ENSG00000052126) | renormalizing the translational profile of RPL18 (ENSG00000063177) | renormalizing the translational profile of HIPK2 (ENSG00000064393) | renormalizing the translational profile of RASSF1 (ENSG00000068028) | renormalizing the translational profile of PABPC1 (ENSG00000070756) | renormalizing the translational profile of RPL31 (ENSG00000071082) | renormalizing the translational profile of PLD1 (ENSG00000075651) | renormalizing the translational profile of EDN1 (ENSG00000078401) | renormalizing the translational profile of RPL6 (ENSG00000089009) | renormalizing the translational profile of KDM2B (ENSG00000089094) | renormalizing the translational profile of RPLP0 (ENSG00000089157) | renormalizing the translational profile of IGBP1 (ENSG00000089289) | renormalizing the translational profile of PABPC4 (ENSG00000090621) | renormalizing the translational profile of ACOT7 (ENSG00000097021) | renormalizing the translational profile of ATP5D (ENSG00000099624) | renormalizing the translational profile of LGALS1 (ENSG00000100097) | renormalizing the translational profile of EIF3L (ENSG00000100129) | renormalizing the translational profile of RPL3 (ENSG00000100316) | renormalizing the translational profile of CEP192 (ENSG00000101639) | renormalizing the translational profile of AMMECR1 (ENSG00000101935) | renormalizing the translational profile of PLP2 (ENSG00000102007) | renormalizing the translational profile of EIF3E (ENSG00000104408) | renormalizing the translational profile of EEF1D (ENSG00000104529) | renormalizing the translational profile of C19orf53 (ENSG00000104979) | renormalizing the translational profile of RPL18A (ENSG00000105640) | renormalizing the translational profile of COMP (ENSG00000105664) | renormalizing the translational profile of CORO2A (ENSG00000106789) | renormalizing the translational profile of RPL28 (ENSG00000108107) | renormalizing the translational profile of RPL19 (ENSG00000108298) | renormalizing the translational profile of RASD1 (ENSG00000108551) | renormalizing the translational profile of NAT9 (ENSG00000109065) | renormalizing the translational profile of RPL34 (ENSG00000109475) | renormalizing the translational profile of CRYAB (ENSG00000109846) | renormalizing the translational profile of GAPDH (ENSG00000111640) | renormalizing the translational profile of MDFI (ENSG00000112559) | renormalizing the translational profile of HBEGF (ENSG00000113070) | renormalizing the translational profile of RPL24 (ENSG00000114391) | renormalizing the translational profile of EEF1B2 (ENSG00000114942) | renormalizing the translational profile of IFIH1 (ENSG00000115267) | renormalizing the translational profile of DPH5 (ENSG00000117543) | renormalizing the translational profile of PPL (ENSG00000118898) | renormalizing the translational profile of PLEKHG1 (ENSG00000120278) | renormalizing the translational profile of LIAS (ENSG00000121897) | renormalizing the translational profile of RPL21 (ENSG00000122026) | renormalizing the translational profile of RPL5 (ENSG00000122406) | renormalizing the translational profile of INHBA (ENSG00000122641) | renormalizing the translational profile of RPL23 (ENSG00000125691) | renormalizing the translational profile of LAMP5 (ENSG00000125869) | renormalizing the translational profile of NECAB3 (ENSG00000125967) | renormalizing the translational profile of COX7C (ENSG00000127184) | renormalizing the translational profile of LIF (ENSG00000128342) | renormalizing the translational profile of MTUS1 (ENSG00000129422) | renormalizing the translational profile of ARHGEF6 (ENSG00000129675) | renormalizing the translational profile of RPL36 (ENSG00000130255) | renormalizing the translational profile of GDF15 (ENSG00000130513) | renormalizing the translational profile of ASS1 (ENSG00000130707) | renormalizing the translational profile of EIF2S3 (ENSG00000130741) | renormalizing the translational profile of RPL27 (ENSG00000131469) | renormalizing the translational profile of MATN3 (ENSG00000132031) | renormalizing the translational profile of KDM6B (ENSG00000132510) | renormalizing the translational profile of RARRES3 (ENSG00000133321) | renormalizing the translational profile of BIVM (ENSG00000134897) | renormalizing the translational profile of ATP5G2 (ENSG00000135390) | renormalizing the translational profile of KRT7 (ENSG00000135480) | renormalizing the translational profile of HNRNPA1 (ENSG00000135486) | renormalizing the translational profile of IL6 (ENSG00000136244) | renormalizing the translational profile of RPL35 (ENSG00000136942) | renormalizing the translational profile of IER3 (ENSG00000137331) | renormalizing the translational profile of DDX60 (ENSG00000137628) | renormalizing the translational profile of RPLP1 (ENSG00000137818) | renormalizing the translational profile of PAQR5 (ENSG00000137819) | renormalizing the translational profile of FGF5 (ENSG00000138675) | renormalizing the translational profile of PDE5A (ENSG00000138735) | renormalizing the translational profile of DIAPH3 (ENSG00000139734) | renormalizing the translational profile of MYO19 (ENSG00000141140) | renormalizing the translational profile of RPL13A (ENSG00000142541) | renormalizing the translational profile of RPL11 (ENSG00000142676) | renormalizing the translational profile of ACTA1 (ENSG00000143632) | renormalizing the translational profile of RPL32 (ENSG00000144713) | renormalizing the translational profile of RPL37 (ENSG00000145592) | renormalizing the translational profile of BTF3 (ENSG00000145741) | renormalizing the translational profile of HIGD2A (ENSG00000146066) | renormalizing the translational profile of CREB5 (ENSG00000146592) | renormalizing the translational profile of DENND2A (ENSG00000146966) | renormalizing the translational profile of EIF3H (ENSG00000147677) | renormalizing the translational profile of RPL7A (ENSG00000148303) | renormalizing the translational profile of EIF3M (ENSG00000149100) | renormalizing the translational profile of FAU (ENSG00000149806) | renormalizing the translational profile of HOMER1 (ENSG00000152413) | renormalizing the translational profile of PLEKHH2 (ENSG00000152527) | renormalizing the translational profile of ANKH (ENSG00000154122) | renormalizing the translational profile of ABCA6 (ENSG00000154262) | renormalizing the translational profile of ADAMTS5 (ENSG00000154736) | renormalizing the translational profile of OXA1L (ENSG00000155463) | renormalizing the translational profile of C9orf85 (ENSG00000155621) | renormalizing the translational profile of RPL30 (ENSG00000156482) | renormalizing the translational profile of NRG1 (ENSG00000157168) | renormalizing the translational profile of ADAMTS4 (ENSG00000158859) | renormalizing the translational profile of RPL8 (ENSG00000161016) | renormalizing the translational profile of RPL26 (ENSG00000161970) | renormalizing the translational profile of RPL29 (ENSG00000162244) | renormalizing the translational profile of CAMK2N1 (ENSG00000162545) | renormalizing the translational profile of IGFBP7 (ENSG00000163453) | renormalizing the translational profile of RPL22L1 (ENSG00000163584)
++ (++ = 1.5 to 2.0): renormalizing the translational profile of AURKA (ENSG00000087586) | renormalizing the translational profile of P2RX7 (ENSG00000089041) | renormalizing the translational profile of RAB3D (ENSG00000105514) | renormalizing the translational profile of GPSM2 (ENSG00000121957) | renormalizing the translational profile of AOX1 (ENSG00000138356)
